Test results as given in the NIST ThermoML archive (doi:10.1021/acs.jced.5b01075).

Experiment: xn = mol fraction of the nth substance listed
Settings: for viscosity: 100 kPa, Liquid, Concentric cylinders viscometry; for surface tension liquid-gas: 294.2 K, Pendant drop shape

C1CC[C@H]2CCCC[C@@H]2C1 [trans-decahydronaphthalene] + c1ccc2c(c1)CCCC2
viscosity [mPa·s]
Settings | 293.15 K | 303.15 K | 313.15 K | 323.15 K | 333.15 K | 343.15 K | 353.15 K | 363.15 K | 373.15 K
x2 = 0.1044 | 2.07 | 1.74 | 1.48 | 1.27 | 1.1 | 0.968 | 0.856 | 0.765 | 0.689
x2 = 0.2075 | 2.03 | 1.71 | 1.46 | 1.25 | 1.09 | 0.957 | 0.847 | 0.758 | 0.683
x2 = 0.3094 | 2.02 | 1.7 | 1.44 | 1.24 | 1.08 | 0.95 | 0.842 | 0.753 | 0.68
x2 = 0.4109 | 2 | 1.68 | 1.43 | 1.23 | 1.07 | 0.943 | 0.836 | 0.749 | 0.676
x2 = 0.5112 | 2.02 | 1.69 | 1.44 | 1.24 | 1.08 | 0.947 | 0.84 | 0.752 | 0.679
x2 = 0.6106 | 2.04 | 1.71 | 1.45 | 1.25 | 1.08 | 0.951 | 0.843 | 0.755 | 0.685
x2 = 0.7093 | 2.07 | 1.73 | 1.46 | 1.26 | 1.09 | 0.958 | 0.849 | 0.76 | 0.687
x2 = 0.807 | 2.11 | 1.75 | 1.48 | 1.27 | 1.1 | 0.968 | 0.858 | 0.768 | 0.694
x2 = 0.9039 | 2.17 | 1.8 | 1.51 | 1.29 | 1.12 | 0.982 | 0.87 | 0.778 | 0.703

Settings | surface tension liquid-gas [mN/m]
x2 = 0.1044 | 30.5
x2 = 0.2075 | 31
x2 = 0.3094 | 31.4
x2 = 0.4109 | 32.1
x2 = 0.5112 | 32.3
x2 = 0.6106 | 32.9
x2 = 0.7093 | 33.6
x2 = 0.807 | 34.1
x2 = 0.9039 | 35
